Patent US20050064501A1, “Medicaments comprising inhibitors of the cell volume-regulated human kinase h-sgk” (PROF. DR. MED. F. LANG, priority 1999, published 2005)
Numbering of substitutions follows the chain as printed. In names and notes the source's numbering stands. Entries after “also recorded” stand apart in the source; their conditions may differ.

Assays:
[1] = molecular target: T1, h-sgk (Homo sapiens, UniProt O00141); assay: Two-electrode voltage clamp of ENaC current in oocytes coexpressing h-sgk; assay type: cell-based; settings: for activation of ENaC (Na+ channel current) by h-sgk: oocytes coexpressing ENaC and h-sgk, treated with kinase inhibitor, FIG. 4
T1 construct: expressed in transfected cells; host or cells: Xenopus laevis oocytes (cRNA injection)
T1 sequence (O00141 1-431): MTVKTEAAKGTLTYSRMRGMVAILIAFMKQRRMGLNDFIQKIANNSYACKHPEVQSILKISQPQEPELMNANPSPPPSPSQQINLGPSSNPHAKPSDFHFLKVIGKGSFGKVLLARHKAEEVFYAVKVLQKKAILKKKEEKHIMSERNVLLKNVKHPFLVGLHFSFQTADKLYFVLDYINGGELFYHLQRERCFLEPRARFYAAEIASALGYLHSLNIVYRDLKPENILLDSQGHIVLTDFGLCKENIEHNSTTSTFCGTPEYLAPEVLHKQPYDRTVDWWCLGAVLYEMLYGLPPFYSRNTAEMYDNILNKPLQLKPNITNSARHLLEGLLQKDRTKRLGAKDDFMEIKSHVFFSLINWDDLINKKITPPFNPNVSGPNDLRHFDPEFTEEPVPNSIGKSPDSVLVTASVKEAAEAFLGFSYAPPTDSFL
Description: (§1) Dissection of Xenopus laevis, and the obtaining and treatment of the oocytes has been described in detail earlier (Busch et al. 1992). The oocytes were each injected with 1 ng of cRNA of NKCC, ENaC or MDEG with or without simultaneous injection of h-sgk. It was possible to carry out two-electrode voltage and current clamp experiments 2-8 days after the injection. Na^+ influx which could be inhibited by furosemide through the NKCC was measured by the ^22Na^+ uptake, which was determined with a scintillation counter, into the oocytes. Na^+ currents (ENaC) were filtered at 10 Hz and recorded with a pen recorder. The experiments were normally carried out on the second day after cRNA injection. The bath solution contained: 96 mM NaCl, 2 mM KCl, 1.8 mM CaCl2, 1 mM MgCl2 and 5 mM HEPES at pH 7.5 and the holding potential was −50 mV. The pH was adjusted by titration with HCl or NaOH in all the experiments. The flow rate of the bath liquid was set at 20 ml/min, which ensured a complete change of solution in the measurement chamber within 10-15 s. All the data are stated in the form of arithmetic means ±SEM.

[2] = tested on: biglycan expression; assay: Transcriptional regulation of biglycan (Northern blot); assay type: cell-based; settings: FIG. 2; for effect of TGFβ1 on biglycan expression in the presence of the NKCC inhibitor: TGFβ1-stimulated
Description: (§2) Cells were cultivated in RPMI/5% CO2/10 mM glucose at 37° C., pH 7.4, supplemented with 10% (vol/vol) fetal calf serum (FCS). The cells were grown to 90% confluence and then homogenized in TRIZOL (GIBCO/BRL) (about 0.4×10^6 per sample). Total RNA was prepared in accordance with the manufacturer's instructions. Northern blots were fractionated by electrophoresis through 10 g/l agarose gels with 15 or 20 μg of total RNA with separate control in the presence of 2.4 mol/l formaldehyde. RNA was transferred by vacuum (Appligene Oncor Trans DNA Express Vacuum Blotter, Appligine, Heidelberg, Germany) to positively charged nylon membranes (Boehringer Mannheim, Germany) and crosslinked under ultraviolet light (UV Stratalinker 2400, Stratagene, Heidelberg, Germany). Hybridization was carried out over night with DIG-Easy-Hyb (Boehringer Mannheim) at a probe concentration of 25 μg/l at 50° C. The digoxigenin (DIG)-labeled probes were produced by PCR as described in detail earlier (Waldegger et al. (1997) PNAS 94: 4440-4445). For the autoradiography, the filters were exposed to an X-ray film (Kodak) for an average of 5 min.

[3] = tested on: h-sgk expression; assay: Transcriptional regulation of h-sgk (Northern blot); assay type: cell-based; settings: FIG. 1; TGFβ1 effect shown after 0.5 to 6 h
Description: as §2

[4] = tested on: NKCC; assay: 22Na+ tracer flux (furosemide-inhibitable Na+ uptake) in oocytes expressing NKCC with or without h-sgk; assay type: cell-based, Xenopus laevis; settings: 22Na+ uptake
Description: as §1

CN[C@@H]1C[C@H]2O[C@@](C)([C@@H]1OC)n1c3ccccc3c3c4c(c5c6ccccc6n2c5c31)C(=O)NC4 [staurosporine]
activation of ENaC (Na+ channel current) by h-sgk [1]: suppresses; also recorded: completely to suppress

COc1ccc2c(c[n+](C)c3c4cc5c(cc4ccc23)OCO5)c1OC [chelerythrine]
activation of ENaC (Na+ channel current) by h-sgk [1]: suppresses; also recorded: completely to suppress

CCCCNc1cc(C(=O)O)cc(S(N)(=O)=O)c1Oc1ccccc1 [bumetanide]
effect of TGFβ1 on biglycan expression in the presence of the NKCC inhibitor [2]: almost completely suppressed

C[C@H](CCC(=O)O)C[C@H](C)C[C@H](C)C(=O)/C=C(\O)[C@H](C)C[C@H](C)C/C=C/[C@@H](C)[C@@H](O)[C@@H](C)[C@@H](O)C[C@@H]1CC[C@@](C)([C@H]2CC[C@@](C)([C@@H](C)O)O2)O1 [ionomycin]
expression of h-sgk [3]: likewise stimulate

TGFβ1: tumor growth factor β1
expression of h-sgk [3]: stimulated
expression of biglycan [2]: stimulated

NS(=O)(=O)c1cc(C(=O)O)c(NCc2ccco2)cc1Cl [furosemide]
effect of TGFβ1 on biglycan expression in the presence of the NKCC inhibitor [2]: completely suppressed
increased expression of the matrix proteins in fibroblasts ([2]; fibroblasts): can be suppressed
Na+ influx in NKCC-injected oocytes ([4]; NKCC alone, without h-sgk, FIG. 3 top): not inhibited
increase in Na+ influx on coexpression of h-sgk with NKCC ([4]; oocytes coexpressing h-sgk and NKCC, FIG. 3 below): completely suppressed

CCCCCCCCCC(=O)O[C@@H]1[C@@H](C)[C@@]2(O)[C@@H](C=C(CO)C[C@@]3(O)C(=O)C(C)=C[C@@H]23)[C@@H]2C(C)(C)[C@]12OC(=O)CCCCCCCCC [PDD, 4-alpha-phorbol 12,13-didecanoate]
expression of h-sgk [3]: likewise stimulate

B1: trans-dominant inhibitory kinase: h-sgk modified by mutation: lysine in position 127 replaced by arginine (K127R); suppresses the catalytic function (protein, UniProt O00141 1-431, looked up, variant K127R)
Serine/threonine-protein …: T1 sequence (O00141 1-431) with K127R
stimulating effect of h-sgk coexpression on the ENaC-mediated Na+ current ([1]; coexpression of the trans-dominant inhibitory kinase in oocytes, FIG. 5): can be suppressed
